The values that follow are results of earlier work, collected in patent US20220000834A1, “NOVEL ADMINISTRATION METHOD” (SUMITOMO DAINIPPON PHARMA CO., LTD., priority 2019, published 2022).

Series [1] concerns nerves in an injured part. The note with it: Patent Documents 1 and 2.
In another series the test system is nerve cells. The note with it: as low as.

As to `CC(=O)c1cc2c(=O)c3c(C(=O)O)c(O)c(O)cc3oc2c(C(C)=O)c1-c1coc2cc(O)c(O)c(C(=O)O)c2c1=O` [compound A], in series [1], the “regeneration of nerves in an injured part” value is “accelerates the regeneration of nerves in an injured part”.

B1: Sema3A: class 3 semaphorin; suppresses growth of neurite growth cone (protein, UniProt Q14563 21-771, looked up)
Semaphorin-3A: NYQNGKNNVPRLKLSYKEMLESNNVITFNGLANSSSYHTFLLDEERSRLYVGAKDHIFSFDLVNIKDFQKIVWPVSYTRRDECKWAGKDILKECANFIKVLKAYNQTHLYACGTGAFHPICTYIEIGHHPEDNIFKLENSHFENGRGKSPYDPKLLTASLLIDGELYSGTAADFMGRDFAIFRTLGHHHPIRTEQHDSRWLNDPKFISAHLISESDNPEDDKVYFFFRENAIDGEHSGKATHARIGQICKNDFGGHRSLVNKWTTFLKARLICSVPGPNGIDTHFDELQDVFLMNFKDPKNPVVYGVFTTSSNIFKGSAVCMYSMSDVRRVFLGPYAHRDGPNYQWVPYQGRVPYPRPGTCPSKTFGGFDSTKDLPDDVITFARSHPAMYNPVFPMNNRPIVIKTDVNYQFTQIVVDRVDAEDGQYDVMFIGTDVGTVLKVVSIPKETWYDLEEVLLEEMTVFREPTAISAMELSTKQQQLYIGSTAGVAQLPLHRCDIYGKACAECCLARDPYCAWDGSACSRYFPTAKRRTRRQDIRNGDPLTHCSDLHHDNHHGHSPEERIIYGVENSSTFLECSPKSQRALVYWQFQRRNEERKEEIRVDDHIIRTDQGLLLRSLQQKDSGNYLCHAVEHGFIQTLLKVTLEVIDTEHLEELLHKDDDGDGSKTKEMSNSMTPSQKVWYRDFMQLINHPNLNTMDEFCEQVWKRDRKQRRQRPGHTPGNSNKWKHLQENKKGRNRRTHEFERAPRSV
For B1, the “concentration inducing regression of nerve cells” value in the series with nerve cells is listed as 10 pM.
